Results published in patent US20210134398A1, “Combinatorial Chemistry Computational System and Enhanced Selection Method” (Southern Methodist University, priority 2019, published 2021).

What was measured:
[1] = molecular target: T1, cysteineless mouse P-glycoprotein (Mus musculus, UniProt P21447, C1070A/C1121A/C1223A/C133A/C427A/C638A/C669A/C713A/C952A); assay: SL-ATP (spin-labeled ATP analog) binding titration by ESR; details: for Maximum ATP binding: in the presence of the compound, ± standard deviation
T1 construct: made in house; host or cells: Pichia pastoris
T1 sequence (P21447 whole entry C133A/C427A/C638A/C669A/C713A/C952A/C1070A/C1121A/C1223A): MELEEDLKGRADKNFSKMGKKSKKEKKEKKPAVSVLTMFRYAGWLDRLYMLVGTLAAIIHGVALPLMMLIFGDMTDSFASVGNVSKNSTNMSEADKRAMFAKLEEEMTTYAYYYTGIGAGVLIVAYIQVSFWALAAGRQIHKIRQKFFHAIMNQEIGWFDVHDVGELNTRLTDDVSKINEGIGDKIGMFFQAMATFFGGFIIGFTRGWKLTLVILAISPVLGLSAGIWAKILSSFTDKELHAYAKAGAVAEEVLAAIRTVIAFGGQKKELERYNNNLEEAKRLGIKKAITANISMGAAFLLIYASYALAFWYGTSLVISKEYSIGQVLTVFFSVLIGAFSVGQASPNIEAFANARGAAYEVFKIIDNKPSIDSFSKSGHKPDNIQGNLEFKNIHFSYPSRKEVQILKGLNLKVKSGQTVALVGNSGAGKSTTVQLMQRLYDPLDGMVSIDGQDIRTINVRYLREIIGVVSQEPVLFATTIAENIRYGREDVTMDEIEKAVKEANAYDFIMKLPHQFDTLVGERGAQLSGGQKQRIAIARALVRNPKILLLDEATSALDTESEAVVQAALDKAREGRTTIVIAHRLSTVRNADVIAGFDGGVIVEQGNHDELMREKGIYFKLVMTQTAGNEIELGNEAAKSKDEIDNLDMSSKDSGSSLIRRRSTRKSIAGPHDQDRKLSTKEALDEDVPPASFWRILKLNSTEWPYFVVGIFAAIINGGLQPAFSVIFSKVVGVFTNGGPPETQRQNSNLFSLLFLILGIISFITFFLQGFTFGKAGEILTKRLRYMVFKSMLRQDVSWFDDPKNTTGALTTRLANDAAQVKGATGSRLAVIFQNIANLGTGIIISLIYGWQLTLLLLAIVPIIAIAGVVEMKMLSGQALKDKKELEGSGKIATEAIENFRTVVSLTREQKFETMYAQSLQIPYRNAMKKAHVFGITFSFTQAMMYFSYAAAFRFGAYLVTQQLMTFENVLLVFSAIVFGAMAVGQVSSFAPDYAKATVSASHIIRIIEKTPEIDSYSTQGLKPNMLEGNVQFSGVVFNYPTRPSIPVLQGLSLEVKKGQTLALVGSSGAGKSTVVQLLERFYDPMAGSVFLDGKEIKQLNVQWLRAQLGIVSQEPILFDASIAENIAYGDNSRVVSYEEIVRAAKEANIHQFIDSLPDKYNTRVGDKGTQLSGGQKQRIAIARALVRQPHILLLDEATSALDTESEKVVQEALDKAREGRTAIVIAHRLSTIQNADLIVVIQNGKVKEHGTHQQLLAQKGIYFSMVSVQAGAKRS
Description: Effects of 29 variants on binding of an ATP-analog to purified P-glycoprotein. ATP binding in the presence of the 29 variants was assessed in titration assays using a spin-labeled analog of ATP, 2′,3′-SL-ATP (2′,3′-(2,2,5,5,-tetramethyl-3-pyrroline-1-oxyl-3-carboxylic acid ester) ATP; (2′,3′ indicates a rapid equilibrium of the ester bond between the C2′ and C3′ of the ribose moiety))^48-50, and electron spin resonance spectroscopy as described in^26. Due to the lower stability of the human P-glycoprotein in the extended times needed for these experiments, the cysteineless mouse protein was used here. The goal was to assess whether binding of the 29 variants to P-gp affected nucleotide binding to the protein.
ESR Measurements. ESR measurements were as described in^26. The amount of protein-bound spin-labeled (SL) adenine nucleotide was determined as the difference between the known total concentration of SL-ATP (2′,3′-(2,2,5,5,-tetramethyl-3-pyrroline-1-oxyl-3-carboxylic acid ester) —ATP^48) added and the free spin-labeled nucleotide (SL-ANP) observed in the experiment. Hyperbolic curve fitting of the results was performed using GraphPad Prism 7 to determine maximum binding and apparent affinity for the spin-labeled nucleotide. The equation used for the fitting the curves was […], where P1 corresponds to the maximum binding of SL-ANP (moles of SL-ANP bound per mole P-gp), and P2 equals the apparent dissociation constant for SL-ANP. To quantify the amount of free SL-ANP, standard curves were established where the signal amplitude of the high field signal of the ESR spectra of free SL-ANP in the absence of protein was correlated to the concentration of SL-ANP added. All ESR measurements were performed using a Bruker EMX 6/1 ESR spectrophotometer operating in X-band mode and equipped with a high sensitivity cavity. Spectra were acquired at a microwave frequency of 9.33 GHz, microwave power of 12.63 mW, 100 kHz modulation frequency and a resolution of 1024 points. The centerfield of the scan was at 3325 G and an area of 100 G was scanned. The peak to peak modulation amplitude was 1G and the time constant was set to 10.240 ms. The conversion time was 163.84 ms, resulting in a total time sweep of 167.772 s. The signal gain was adjusted for the SL-ATP concentrations in the different experiments.

[2] = molecular target: T2, Cysteineless Mouse MDR3 P-glycoprotein (Mus musculus, UniProt P21447, C1070A/C1121A/C1223A/C133A/C427A/C638A/C669A/C713A/C952A); assay: ATPase activity assay (basal and verapamil-stimulated), purified P-gp in mixed micelles; format: biochemical; details: for Effect on stimulated ATPase / Stimulated ATPase: in the presence of verapamil; for Stimulated ATPase / Basal ATPase: ± standard deviation
T2 construct: made in house; host or cells: Pichia pastoris
T2 sequence (P21447 whole entry C133A/C427A/C638A/C669A/C713A/C952A/C1070A/C1121A/C1223A): as above
Description: Evaluation of mode of inhibition of P-glycoprotein by Group 1 and Group 2 variants of compound 29. To assess the mode of inhibition of P-gp by the novel variants of P-gp inhibitor 29, ATP hydrolysis by P-gp was evaluated in the presence or absence of the variants. […] Murine P-gp (MDR3) expressed in Pichia pastoris that had all naturally occurring cysteines replaced with alanine, was used^45, 46. It is widely assumed that the ATP hydrolytic rate of P-gp is stimulated in the presence of transport substrates when compared to ATP hydrolysis in the absence of transport substrates. Assays comparing these rates can therefore be useful not only in identifying inhibitors of P-gp catalyzed ATP hydrolysis, but also to potentially infer whether a compound might be a transport substrate if basal ATPase rates are stimulated by the addition of a compound.
(§1) P-glycoprotein Purification. Cysteine-less MDR3 and the human normal MDR1 P-glycoprotein was recombinantly expressed in the yeast Pichia pastoris essentially as in^45, 46 and used for assaying ATP hydrolysis and ATP binding to the protein in the presence of the 29-variants. Purification of the protein was performed as described^49 with small modifications resulting in highly enriched P-gp in mixed micelles containing dodecyl maltoside (DDM) and lysophosphatidyl choline^26.
(§2) ATPase Activity Assays. ATP hydrolysis activity was measured using a coupled enzyme assay^72 as modified in reference^26.

[3] = molecular target: T3, P-gp-catalyzed transport of calcein AM in DU145TXR cells (Homo sapiens, UniProt P08183); assay: Calcein AM accumulation assay; format: cell-based; details: without pre-incubation, compared to parental 29; 5 μM stated for Group 2
T3 construct: DU145 human prostate cancer cells^52 as well as the multidrug resistant sub-line, DU145TXR; endogenous in cells; host or cells: DU145TXR (paclitaxel-selected sub-line of human DU145 prostate cancer cells)
T3 sequence (P08183 whole entry): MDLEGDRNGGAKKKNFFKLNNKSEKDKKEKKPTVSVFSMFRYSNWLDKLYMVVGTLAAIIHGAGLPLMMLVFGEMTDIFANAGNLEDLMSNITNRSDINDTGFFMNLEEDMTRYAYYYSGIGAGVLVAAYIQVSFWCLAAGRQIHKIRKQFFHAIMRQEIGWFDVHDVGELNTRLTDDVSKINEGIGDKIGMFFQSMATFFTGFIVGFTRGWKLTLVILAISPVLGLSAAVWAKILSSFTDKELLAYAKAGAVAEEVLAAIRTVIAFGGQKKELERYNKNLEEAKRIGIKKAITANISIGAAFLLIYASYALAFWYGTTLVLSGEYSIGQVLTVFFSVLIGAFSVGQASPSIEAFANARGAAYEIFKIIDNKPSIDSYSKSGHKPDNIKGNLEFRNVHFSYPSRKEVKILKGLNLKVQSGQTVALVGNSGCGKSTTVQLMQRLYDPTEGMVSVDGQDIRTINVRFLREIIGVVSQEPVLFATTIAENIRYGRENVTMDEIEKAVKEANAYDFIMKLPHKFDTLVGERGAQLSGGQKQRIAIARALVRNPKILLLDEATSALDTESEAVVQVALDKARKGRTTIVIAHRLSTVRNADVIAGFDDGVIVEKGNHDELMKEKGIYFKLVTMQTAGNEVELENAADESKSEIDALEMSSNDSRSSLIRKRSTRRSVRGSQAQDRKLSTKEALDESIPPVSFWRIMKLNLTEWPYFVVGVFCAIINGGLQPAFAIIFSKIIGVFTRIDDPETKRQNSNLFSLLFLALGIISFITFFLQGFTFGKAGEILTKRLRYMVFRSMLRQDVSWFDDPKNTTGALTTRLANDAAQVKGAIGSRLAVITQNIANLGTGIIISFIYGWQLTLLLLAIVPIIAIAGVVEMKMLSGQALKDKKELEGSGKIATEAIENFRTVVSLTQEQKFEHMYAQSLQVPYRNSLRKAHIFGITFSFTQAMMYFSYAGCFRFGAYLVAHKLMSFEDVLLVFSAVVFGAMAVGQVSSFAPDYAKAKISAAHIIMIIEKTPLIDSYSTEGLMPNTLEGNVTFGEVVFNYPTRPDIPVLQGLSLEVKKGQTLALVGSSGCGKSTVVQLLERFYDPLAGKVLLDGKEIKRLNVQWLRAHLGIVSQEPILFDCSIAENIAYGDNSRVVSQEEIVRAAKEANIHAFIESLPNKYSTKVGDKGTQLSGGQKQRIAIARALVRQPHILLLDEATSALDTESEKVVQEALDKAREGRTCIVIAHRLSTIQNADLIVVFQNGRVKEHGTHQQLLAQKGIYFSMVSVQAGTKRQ

[4] = molecular target: T4, Normal Human MDR1 P-glycoprotein (Homo sapiens, UniProt P08183); assay: ATPase activity assay (basal and verapamil-stimulated), P-gp in nanodiscs; format: biochemical; details: for Effect on stimulated ATPase / Stimulated ATPase: in the presence of verapamil; for Stimulated ATPase / Basal ATPase: ± standard deviation; for Effect on basal ATPase / Basal ATPase: no added transport substrate
T4 construct: made in house; host or cells: Pichia pastoris (P-gp); E. coli BL21 (DE3) (MSP1E3D1)
T4 sequence (P08183 whole entry): as above
Text: To assess whether the observed discrepancies of compounds stimulating basal P-gp ATPase activity but not being transport substrates of the human pump in the cell culture assessments were due to the fact that these biochemical assays used a cysteineless variant of the mouse MDR3 P-glycoprotein, the experiments were repeated using normal human MDR1 P-gp. In order to stabilize the human protein for the activity assays, the protein was assembled into membrane nanodiscs as described herein.
as §1
Nanodisc assembly. Human P-gp in mixed detergent micelles obtained during protein purification, was reconstituted into nanodiscsas described in references^73, 74 with small modifications. […] The detergent was removed with Bio-Beads™ SM-2 Adsorbent Media (BioRad). Ni-NTA Agarose (Qiagen) chromatography was used to purify P-gp reconstituted nanodiscs using 6 bed volumes of start buffer (20% (v/v) glycerol, 50 mM Tris-CL pH 7.5 at 4° C., 50 mM NaCl), and 5 bed volumes of elution buffer (20% (v/v) glycerol, 50 mM Tris-Cl pH 7.5 at 4° C., 50 mM NaCl, 300 mM imidazole).
as §2

SMILES | Effect on SL-ANP binding [1] | Maximum ATP binding [1] | Stimulated ATPase [2] | Basal ATPase ([2]; no added transport substrate) | Calcein accumulation in DU145TXR (in words) [3] | Effect on stimulated ATPase [4] | Stimulated ATPase [4] | Effect on basal ATPase [4] | Basal ATPase [4] | further results
Cc1cc(C)c(-c2cc(NC(=O)CSCC(=O)Nc3ccc4ncsc4c3)n(-c3ccccc3)n2)cc1C [29-255, 2-({[(1,3-benzothiazol-6-yl)carbamoyl]methyl}sulfanyl)-N-[1-phenyl-3-(2,4,5 trimethylphenyl)-1H-pyrazol-5-yl]acetamide] | no | 1.9 ± 0.1 mol SL-ANP bound/mol P-gp | 123 ± 15 % of DMSO | 355 ± 7 % of DMSO | considerably increased calcein accumulation | inhibitor | 59 ± 6 % of DMSO | none | 84 ± 9 % of DMSO | Effect on stimulated ATPase ([2]; listed as SMU29-255): none; Effect on basal ATPase ([2]; no added transport substrate): stimulator; Stimulation of basal ATPase ([2]; no added transport substrate): ~3 fold
Cc1cc(C)c(-c2cc(NC(=O)CSCC(=O)NC34CC5CC(CC(C5)C3)C4)n(-c3ccccc3)n2)cc1C [29-278, 2-({[(adamantan-1-yl)carbamoyl]methyl}sulfanyl)-N-[1-phenyl-3-(2,4,5-trimethylphenyl)-1H-pyrazol-5-yl]acetamide] | yes | – | 41 ± 7 % of DMSO | 78 ± 4 % of DMSO | less calcein accumulation than the parental compound | inhibitor | 63 ± 6 % of DMSO | inhibitor | 74 ± 6 % of DMSO | Maximum ATP binding ([1]; listed as 278): about 1 mol SL-ANP bound/mol P-gp; Maximum ATP binding ([1]; listed as SMU29-278): 1.3 ± 0.1 mol SL-ANP bound/mol P-gp; Effect on stimulated ATPase ([2]; listed as 278): inhibited verapamil-stimulated ATPase activity; Effect on stimulated ATPase ([2]; listed as SMU29-278): inhibitor; Effect on basal ATPase ([2]; no added transport substrate, listed as 278): inhibited; Effect on basal ATPase ([2]; no added transport substrate, listed as SMU29-278): inhibitor
Cc1cc(C)c(-c2cc(NC(=O)CSCC(=O)NC(c3ccccc3)c3ccccc3)n(-c3ccccc3)n2)cc1C [29-280, N-(diphenylmethyl)-2-[({[1-phenyl-3-(2,4,5-trimethylphenyl)-1H-pyrazol-5-yl]carbamoyl)methyl}sulfanyl]acetamide] | marginally | 1.6 ± 0.1 mol SL-ANP bound/mol P-gp | 116 ± 4 % of DMSO | 148 ± 4 % of DMSO | less calcein accumulation than the parental compound | inhibitor | 54 ± 7 % of DMSO | inhibitor | 76 ± 8 % of DMSO | Effect on stimulated ATPase ([2]; listed as 280): only a slight stimulation; Effect on stimulated ATPase ([2]; listed as SMU29-280): stimulator; Effect on basal ATPase ([2]; no added transport substrate, listed as SMU29-280): stimulator
